Measured values published in US11357786B2, “Synthetic disugar hydrocarbons as natural analogs to control microbial behaviors” (Syracuse University, priority 2014, dated 2022).
Entries after “also recorded” stand apart in the source; their conditions may differ.

Columns and labels:
[1] = test system: nonswarming P. aeruginosa mutant rhlA; test: Swarming motility of nonswarming rhlA mutant on soft agar (reactivation / agonist assay); type: cell-based, Pseudomonas aeruginosa; settings: 85 μM in soft agar (0.5%), 24 h
How it was run: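 rhlA transposon mutant of PAO1 (3 μl, OD600 0.4–0.6) inoculated on M8 soft agar (0.2% glucose, 0.5% casamino acids, 1 mM MgSO4, 0.5% agar) with test compound to find swarming agonists. Incubated 12 h at 37 °C plus 12 h at room temperature; swarm area measured by weighing paper cut-outs of imaged swarms.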

wild type PAO1 = test: Swarming motility of wild type PAO1 on soft agar (antagonist assay); type: cell-based, Pseudomonas aeruginosa; settings: for Swarming motility of wild type PAO1: 85 μM in soft agar, 24 h; for Effect on PAO1 swarming: concentration not given
How it was run: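 Wild-type PAO1 culture (OD600 ~0.4–0.6, 3 μl) spotted on M8 swarm agar with 0.2% glucose, 0.5% casamino acids, 1 mM MgSO4 and 0.5% agar. Plates incubated 12 h at 37 °C then 12 h at room temperature; swarm area measured by cutting and weighing printed plate images.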

PAO1 biofilm = test: Crystal violet based static biofilm inhibition assay, DSHs in LB media (Examples 2 and 4); type: cell-based, Pseudomonas aeruginosa; settings: for Inhibition of PAO1 biofilm formation (surface attached): 160 μM, 24 h, LB media; for Anti-biofilm activity (biofilm inhibition): concentration not given
How it was run: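 PAO1 subculture (OD600 ~0.1) was grown statically in LB at 37° C for 24 h with or without DSHs (screened at 160 μM). Surface-attached biofilm was then stained with 0.1% crystal violet, solubilised in 30% AcOH and read at 600 nm. Values are the mean of 4 wells.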

PAO1-EGFP = test: Fluorescence adhesion assay on polystyrene, DSHs (Examples 2 and 4); type: cell-based, Pseudomonas aeruginosa; settings: 160 μM
Procedure: The ability of DSHs was tested to inhibit Pseudomonas aeruginosa adhesion, biofilm and to disperse pre-formed biofilm. To quantify the amount of PAO1/EGFP attached on the surface of micro titer plates with or without the synthesized DSHs, fluorescence emitted by green fluorescent proteins (GFP) was quantified (see supporting info for details). Crystal violet (CV) based static biofilm assay (see supporting info) was used to screen the anti-biofilm potencies of all synthesized agents. Both surface attached (SA) (FIG. 17) and total (SA+air-liquid interface) biofilm of P. aeruginosa was quantified. […] CV assays were also used to quantify the amount of P. aeruginosa biofilm remaining after dispersion experiments (FIG. 19). Initially, all agents were screen for anti-biofilm activities (both inhibition and dispersion) at 160 μM. […]
The effect that DSHs have on the adhesion of PAO1-EGFP on polystyrene surface (microtiter plate) was also examined. […] After 24-hours, the fluorescent signal obtained from surface adhered PAO1-EGFP was measured. Percent reduction in fluorescence was calculated by comparing fluorescent signal from PAO1-EGFP grown in LB-media with the signal from wells that had DSHs (FIG. 29A). […] After 24 hours, the surface attached biofilms adhering to the bottom of the wells were stained with crystal-violet dye and the biofilm was quantified by measuring absorbance at 600 nm (OD600). […]

[2] = test system: planktonic Pseudomonas aeruginosa (PAO1); test: Planktonic bacterial growth (OD600 growth curve); type: cell-based; settings: 160 μM, LB
Procedure: Antimicrobial activities of disaccharide hydrocarbons against planktonic growth. Overnight inoculum of PAO1 was sub-cultured to an OD600˜0.1 and then aliquoted (200 μL) into the wells of a micro-titer plate and DSHs (˜160 μM) were then added to assigned wells. Wells with no-agents were created as a positive control. The micro-titer plate was then placed in a rotary shaker (250 rpm at 37° C.) and optical density was measured after regular intervals of time using Biotek ELx800 ™ absorbance microplate reader (BioTek Instruments, Inc., Winooski, Vt.) using Gen5™ data analysis software. The OD600 values were taken in sterile conditions over 24 h. The OD600 values were plotted against time to obtain a growth curve for planktonic growth with or without agents.
Optical density was measured using Biotek ELx800 ™ absorbance microplate reader (BioTek Instruments, Inc., Winooski, Vt.) using Gen5™ data analysis software. The OD600 values were taken in sterile conditions at 0, 2, 4, 6, 8, 10, 12, and 24 h after bacterial culture inoculation in 96-well polystyrene plate with and without agents.

PAO1 and rhlA = test: Bacterial growth on soft agar swarm plate; type: cell-based, Pseudomonas aeruginosa
Procedure: Swarm agar plates were based on M8 medium supplemented with 0.2% glucose, 0.5% casamino acid, 1 mM MgSO4 and […]. 17 For each set of experiment all the swarm plates were poured from same batch of agar and allowed to dry for 1 h before inoculation of bacteria. Bacterial culture (3 μl) (wild type PAO1 or rhlA mutant) with OD600 between […] was inoculated on the solidified agar plates. Swarm agar plates were incubated at 37° C. for 12 h and then incubated for additional 12 h at room temp. Chronological images of swarm plates were taken using a camera. To measure swarming area, sizes of the petridish in all swarming images were adjusted to a pre-assigned diameter and images were printed on copying paper (Xerox-business 4200). Weight of a 1 cm^2 copy paper square was roughly ˜8.0 mg. swarming images on the copy paper were cut and weighed, the swarm area was calculated by dividing the weight of image by weight of 1 cm^2 square (8 mg).

1-day old PAO1 biofilm = test: Crystal violet assay for dispersion of 1-day old biofilm, DSHs (Examples 2 and 4); type: cell-based, Pseudomonas aeruginosa; settings: 160 μM, another 24 h
Procedure: The effect that DSHs have on the adhesion of PAO1-EGFP on polystyrene surface (microtiter plate) was also examined. PAO1-EGFP is a P. aeruginosa strain that constitutively expresses green fluorescent protein. In the adhesion assays, PAO1-EGFP was grown in microtiter plate for 24-hours in LB-media with (160 μM) or without DSHs. After 24-hours, the fluorescent signal obtained from surface adhered PAO1-EGFP was measured. Percent reduction in fluorescence was calculated by comparing fluorescent signal from PAO1-EGFP grown in LB-media with the signal from wells that had DSHs (FIG. 29A). To study the effect of DSHs on biofilm formation, Pseudomonas aeruginosa (PAO1) was grown in LB-media with (160 μM) or without DSHs at 37° C. under static conditions within wells of microtiter plates. After 24 hours, the surface attached biofilms adhering to the bottom of the wells were stained with crystal-violet dye and the biofilm was quantified by measuring absorbance at 600 nm (OD600). The percent inhibition was calculated by comparing biofilm content of wells with no added agents (control) with the biofilm content from wells that had 160 μM of DSHs (FIG. 29A). Similar to inhibition, the surface attached biofilm after dispersion with DSHs was quantified with crystal-violet staining and absorbance measurement at 600 nm, except that for dispersion, biofilm was first grown for 1 day in just LB-media without any DSHs after which DSHs were added and plates were incubated for additional 24 hours followed by quantification (FIG. 29B).
Crystal violet based assay for quantifying dispersion of 1-day old PAO1 biofilms were Plate for set up similar to inhibition assay with a slight modification. Wells of the micro-titer plate was inoculated with (200 μL) bacterial subculture (PAO1 subculture OD600 ˜0.1). The plates were incubated at 37° C. for 24 hours to allow biofilm formation. After 24 hours, bacterial culture was gently pipetted out and appropriate volume of DSH were added followed by addition of fresh LB medium (200 μL). The microtiter plate was incubated for an additional 24 hours at 37° C., following which, similar to work up of inhibition assay, culture was removed, wells were washed and CV-dye was introduced, followed by washing and destaining with 30% AcOH solution in water and quantification at 600 nm. Here again, only the surface attached biofilm dispersed was reported by comparing wells with DSHs with wells with no agent.
Dose dependence assays for biofilm inhibition and dispersion. […] Both for biofilm inhibition and dispersion, predetermined volumes of DSH stocks were added to the assigned wells to span a concentration range between 0.5 μM-170 μM. Percent biofilm inhibition of dispersion was calculated by comparing to wells with no agent. The percent biofilm inhibition or dispersion was plotted versus concentration of DSHs. The linear values were logarithmically curve fitted using equation […]. The half maximal inhibitory concentration for both biofilm inhibition and dispersion (IC50 and DC50) were thus obtained.

Compound | Swarming motility of rhlA mutant [1] | Swarming motility of wild type PAO1 (wild type PAO1) | Effect on PAO1 swarming (wild type PAO1) | Inhibition of PAO1 biofilm formation (surface attached) (PAO1 biofilm; listed as 8: DαR, 160 µM) | Anti-biofilm activity (biofilm inhibition) (PAO1 biofilm) | Adhesion inhibition of PAO1-EGFP on polystyrene (PAO1-EGFP) | Inhibition of PAO1 biofilm formation (surface attached) (PAO1 biofilm; listed as 11: FβC, 160 µM) | Inhibition of planktonic growth of Pseudomonas aeruginosa [2] | Bacterial growth on soft-agar plate (PAO1 and rhlA; 160 μM, PAO1 and rhlA) | Bacterial growth on soft agar (~0.5%) plate (PAO1 and rhlA; PAO1, concentration not stated) | Inhibition of PAO1 biofilm formation (surface attached) (PAO1 biofilm) | Inhibition of PAO1 biofilm formation (surface attached) (PAO1 biofilm; listed as 18: DβCDS, 160 µM) | Dispersion of 24-h old PAO1 biofilm (1-day old PAO1 biofilm)
CCCCCCCCCCCCO[C@@H]1O[C@@H](C)[C@H](O)[C@@H](O)[C@H]1O [DαR (9), dodecyl-α-rhamnoside] | no apparent effect on rhlA | inhibited the swarming motility of wild type PAO1 | PAO1 swarming inhibitors | poor anti-biofilm activity | weak anti-biofilm activity | 63% |  |  |  |  |  |  | 
CC(C)=CCC/C(C)=C/CC/C(C)=C/CO[C@@H]1O[C@H](CO)[C@@H](O[C@@H]2O[C@H](CO)[C@@H](O)[C@H](O)[C@H]2O)[C@H](O)[C@H]1O [FβC (11), farnesyl-β-cellobioside] | weak activation of rhlA swarming motility | weak promotion of swarming motility of wild type PAO1 | no apparent effect on PAO1 swarming |  | did not show anti-biofilm activities |  | poor anti-biofilm activity | did not inhibit the planktonic growth | complete abolition of bacterial growth on the soft-agar plate | inhibited bacterial (PAO1) growth on a soft agar |  |  | 
dodecyl-β-cyclodextrin [DβCDS (18)] | no significant effect on the swarming motility | no significant effect on the swarming motility | no apparent effect on PAO1 swarming |  | weak anti-biofilm activity; also recorded: did not show anti-biofilm activities | 29% |  |  |  |  | insignificant biofilm inhibition | increased the biofilm content | promoted biofilm formation instead of causing dispersion
